# Assays:
# Type in all cases: in vivo
# Descurainia sophia = test: Activity assay of compositions: post-emergence spray treatment of stems and leaves (F), fresh weight inhibition and combined effect (Gowing method); conditions: 21 d
# Procedure: (§1) The required active ingredient B was purchased from a reagent company or a technical material manufacturer or synthesized by a conventional method. The technical materials were all dissolved with acetone solvents and diluted with aqueous solution of 0.1% Tween-80 emulsifier, which should be used immediately after dilution.
# Descurainia sophia weeds were cultivated by a pot culture method. […] Weed seeds with plump and uniform grains were selected, treated with 30% hydrogen peroxide for 10 min, and accelerated to germinate at 15-20° C. in a biochemical incubator (in darkness). The weed seeds that had just germinated were evenly placed on the surface of the soil and then covered with 0.5-1 cm soil according to the sizes of seeds.
# The culture was carried out in a controllable sunlight greenhouse at 20-30° C., in natural light, and with relative humidity of 57%-72%.
# Each treatment was repeated 4 times. Three pots with 20 weed seeds sowed per pot were treated each time.
# The agents were used once in total in the experiment. When at the stage of 1.5-2 leaves, the weeds were thinned out to maintain 10 weeds per pot. Thirty weeds were kept in each treatment, and then continued to be cultured until the 10-leaf stage for further treatment.
# (§2) The well-cultured test materials were evenly placed on a platform with an area of 0.5 m^2, and foliage spraying was carried out by the 3WP-2000-type walking spray tower at a dosage of 450 kg/ha and a spray pressure of 0.3 MPa. After all the solution was sprayed, the air valve was closed, and 30 seconds later, the door of the spray tower was opened, and the nutritional bowl was taken out. Next, the air valve was opened, and the spray tube was cleaned by spraying 50 ml of water. The test materials were transferred to and routinely cultured in a greenhouse after the treatment.
# (§3) A method for investigating absolute numbers was employed. Whole seedlings of survival weeds were cut off along the soil surface with a blade, and the fresh weight of the weeds was weighed using an analytical balance. For dead weeds, the fresh weight thereof was zero.
# (§4) The investigation was performed 21 days after the treatment for once in total.
# (§5) The theoretical fresh weight inhibition rate of a mixed combination of each treatment was calculated by the Gowing method (E0=X+Y−X*Y/100). Then compared with the measured inhibition rate (E), the type of the combined effect of the combination of the two on weeds was evaluated, which was a synergistic effect when E−E0>10%; an antagonistic effect when E−E0<−10%; an additional effect when −10%≤E−E0≤10%. An optimal ratio was determined according to factors such as the actual control effects, characteristics of herbicides, balance of the formulation, etc. In the formula, X represents the fresh weight inhibition rate of the active ingredient A in a dosage of P; Y represents the fresh weight inhibition rate of the active ingredient B in a dosage of Q. The statistical results are shown in Table 4.
# major crops = test: Pre-emergence test experiment (crops); parameters: key: 9: completely dead; 8: growth control rate is greater than or equal to 90% and less than 100%; 7: growth control rate is greater than or equal to 80% and less than 90%; 6: growth control rate is greater than or equal to 70% and less than 80%; growth control rate is greater than or equal to 50% and less than 70%; 4: growth control rate is greater than or equal to 30% and less than 50%; growth control rate is greater than or equal to 20% and less than 30%; growth control rate is greater than or equal to 10% and less than 20%; growth control rate is less than 10%; 0: no effect; conditions: 15 g a.i./ha
# Digitaria sanguinalis = test: Pre-emergence sealing experiment for water-seeding; parameters: key: 9: completely dead; 8: growth control rate is greater than or equal to 90% and less than 100%; 7: growth control rate is greater than or equal to 80% and less than 90%; 6: growth control rate is greater than or equal to 70% and less than 80%; growth control rate is greater than or equal to 50% and less than 70%; 4: growth control rate is greater than or equal to 30% and less than 50%; growth control rate is greater than or equal to 20% and less than 30%; growth control rate is greater than or equal to 10% and less than 20%; growth control rate is less than 10%; 0: no effect; conditions: 15 g a.i./ha, 15 days
# Text: (§6) The activity level criteria for plant damage (i.e., growth control rate) are as follows: • Level 9: completely dead; • Level 8: growth control rate is greater than or equal to 90% and less than 100%; • Level 7: growth control rate is greater than or equal to 80% and less than 90%; • Level 6: growth control rate is greater than or equal to 70% and less than 80%; • Level 5: growth control rate is greater than or equal to 50% and less than 70%; • Level 4: growth control rate is greater than or equal to 30% and less than 50%; • Level 3: growth control rate is greater than or equal to 20% and less than 30%; • Level 2: growth control rate is greater than or equal to 10% and less than 20%; • Level 1: growth control rate is less than 10%; • Level 0: no effect.
# (§7) The seeds of Leptochloa chinensis, Digitaria sanguinalis, Monochoria vaginalis (sulfonylurea-resistant strain, collected from Hunan, China), Cyperus iria (sulfonylurea-resistant strain, collected from Jiangsu, China), Huaidao (rice cultivar), etc. were broadcasted on the surface of nutrition bowls filled with soil and fully covered by soil. The prepared nutrition bowls were then placed in a cultivation box, with water filled to a suitable height to keep the soil in the nutrition bowls moist. The test compounds of the present invention were individually dissolved with mixed solutions of acetone and Tween-80, then diluted into solution of a certain concentration using a certain amount of water and sprayed using a spray tower. The plants were placed on a greenhouse seedbed and cultured for 15 days, and the experimental results were then collected. The compounds were applied at 120, 60, 30 and 15 g a.i./ha in triplicate and the results were averaged. The effects were evaluated according to the above activity level criteria.
# Leptochloa chinensis = test: Pre-emergence sealing experiment for water-seeding; parameters: key: 9: completely dead; 8: growth control rate is greater than or equal to 90% and less than 100%; 7: growth control rate is greater than or equal to 80% and less than 90%; 6: growth control rate is greater than or equal to 70% and less than 80%; growth control rate is greater than or equal to 50% and less than 70%; 4: growth control rate is greater than or equal to 30% and less than 50%; growth control rate is greater than or equal to 20% and less than 30%; growth control rate is greater than or equal to 10% and less than 20%; growth control rate is less than 10%; 0: no effect; conditions: 15 g a.i./ha, 15 days
# Text: as §6, §7
# Monochoria vaginalis = test: Pre-emergence sealing experiment for water-seeding; parameters: key: 9: completely dead; 8: growth control rate is greater than or equal to 90% and less than 100%; 7: growth control rate is greater than or equal to 80% and less than 90%; 6: growth control rate is greater than or equal to 70% and less than 80%; growth control rate is greater than or equal to 50% and less than 70%; 4: growth control rate is greater than or equal to 30% and less than 50%; growth control rate is greater than or equal to 20% and less than 30%; growth control rate is greater than or equal to 10% and less than 20%; growth control rate is less than 10%; 0: no effect; conditions: 15 g a.i./ha, 15 days, sulfonylurea-resistant strain
# Text: as §6, §7
# Cyperus iria = test: Pre-emergence sealing experiment for water-seeding; parameters: key: 9: completely dead; 8: growth control rate is greater than or equal to 90% and less than 100%; 7: growth control rate is greater than or equal to 80% and less than 90%; 6: growth control rate is greater than or equal to 70% and less than 80%; growth control rate is greater than or equal to 50% and less than 70%; 4: growth control rate is greater than or equal to 30% and less than 50%; growth control rate is greater than or equal to 20% and less than 30%; growth control rate is greater than or equal to 10% and less than 20%; growth control rate is less than 10%; 0: no effect; conditions: 15 g a.i./ha, 15 days, sulfonylurea-resistant strain
# Text: as §6, §7
# [1] = tested on: monocotyledonous and dicotyledonous weeds; test: Pre-emergence test experiment (weeds); parameters: key: 9: completely dead; 8: growth control rate is greater than or equal to 90% and less than 100%; 7: growth control rate is greater than or equal to 80% and less than 90%; 6: growth control rate is greater than or equal to 70% and less than 80%; growth control rate is greater than or equal to 50% and less than 70%; 4: growth control rate is greater than or equal to 30% and less than 50%; growth control rate is greater than or equal to 20% and less than 30%; growth control rate is greater than or equal to 10% and less than 20%; growth control rate is less than 10%; 0: no effect; conditions: 15 g a.i./ha
# weeds = test: Activity assay of compositions: soil sealing treatment (S), fresh weight inhibition and combined effect (Gowing method); conditions: Eclipta prostrata, 21 d
# Procedure: as §1
# • Weeds were cultivated in a controllable sunlight greenhouse at 20 to 30° C., in natural light, and with relative humidity of 57% to 72%. […] The test soil was quantitatively filled to ¾ of the pot, and then watered from the bottom of the pot to completely wet the soil to saturation. The test weed seeds were accelerated to just germinate, and then evenly and quantitatively broadcasted on the soil surface, covered with 0.5-1 cm soil according to the sizes of the seeds, and ready for use 72 hours after sowing.
# Each treatment was repeated 4 times. Four pots with 20 weed seeds sowed per pot were treated each time.
# as §2, with “well-sowed” for “well-cultured”, “closed. And” for “closed, and”, “water.” for “water. The test materials were transferred to and routinely cultured in a greenhouse after the treatment.”
# as §3, §4, §5
smiles,measurement,setting,value
CCOC(=O)c1nc(-c2ccc(C(F)(F)F)c(OC)c2F)nc(N)c1OC,Control effect of B applied alone in a corresponding dose (%),Descurainia sophia; B 6 g a.i./ha,26.8%
same,Control effect of B applied alone in a corresponding dose (%),Descurainia sophia; B 12 g a.i./ha,37.7%
"C[N+](C)(C)CCO.O=C([O-])COc1ccc(Cl)cc1Cl [2,4-D-Choline]",Control effect of B applied alone in a corresponding dose (%),Descurainia sophia; B 150 g a.i./ha,44.7%
same,Control effect of B applied alone in a corresponding dose (%),Descurainia sophia; B 300 g a.i./ha,60.0%
Cc1nn(C)cc1C(=O)Oc1c(C(=O)c2ccc(C(F)(F)F)cc2S(C)(=O)=O)c(C)nn1C [Bipyrazone],Control effect of B applied alone in a corresponding dose (%),Descurainia sophia; B 15 g a.i./ha,55.4%
same,Control effect of B applied alone in a corresponding dose (%),Descurainia sophia; B 30 g a.i./ha,78.9%
O=C(O)c1nc(Cl)ccc1Cl [Clopyralid],Control effect of B applied alone in a corresponding dose (%),Descurainia sophia; B 30 g a.i./ha,40.5%
same,Control effect of B applied alone in a corresponding dose (%),Descurainia sophia; B 60 g a.i./ha,58.8%
Cc1ccc(-n2cnc(C(F)(F)F)n2)nc1Oc1cccc(C(F)(F)F)c1 [Compound 8],Pre-emergence plant damage level (growth control rate) on Corn,major crops; Corn,0
same,Pre-emergence plant damage level (growth control rate) on Cotton,major crops; Cotton,0
same,Pre-emergence plant damage level (growth control rate) on Soybean,major crops; Soybean,0
same,"activity level (growth control rate, fresh weight), Digitaria sanguinalis",Digitaria sanguinalis,9
same,"activity level (growth control rate, fresh weight), Leptochloa chinensis",Leptochloa chinensis,9
same,"activity level (growth control rate, fresh weight), Monochoria vaginalis",Monochoria vaginalis,9
same,"activity level (growth control rate, fresh weight), Cyperus iria",Cyperus iria,9
same,Pre-emergence activity level (growth control rate) on Amaranthus retroflexus,[1]; Amaranthus retroflexus,9
same,Pre-emergence activity level (growth control rate) on Descurainia sophia,[1]; Descurainia sophia,9
same,Pre-emergence activity level (growth control rate) on Digitaria sanguinalis,[1]; Digitaria sanguinalis,9
same,Pre-emergence activity level (growth control rate) on Setaria viridis,[1]; Setaria viridis,9
same,Pre-emergence activity level (growth control rate) on Solanum nigrum,[1]; Solanum nigrum,9
same,Pre-emergence activity level (growth control rate) on Veronica,[1]; Veronica,9
COc1c(Cl)ccc(Cl)c1C(=O)O [Dicamba],Control effect of B applied alone in a corresponding dose (%),Descurainia sophia; B 37.5 g a.i./ha,39.6%
same,Control effect of B applied alone in a corresponding dose (%),Descurainia sophia; B 75 g a.i./ha,50.8%
c1cc[n+]2c(c1)-c1cccc[n+]1CC2 [Diquat dibromide monohydrate],Control effect of B applied alone in a corresponding dose (%),Descurainia sophia; B 60 g a.i./ha,42.2%
same,Control effect of B applied alone in a corresponding dose (%),Descurainia sophia; B 120 g a.i./ha,66.6%
CP(=O)(O)CCC(N)C(=O)O (centres unmarked) [Glufosinate-ammonium],Control effect of B applied alone in a corresponding dose (%),Descurainia sophia; B 60 g a.i./ha,50.7%
same,Control effect of B applied alone in a corresponding dose (%),Descurainia sophia; B 120 g a.i./ha,71.5%
O=C(O)CNCP(=O)(O)O [Glyphosate],Control effect of B applied alone in a corresponding dose (%),Descurainia sophia; B 75 g a.i./ha,56.6%
same,Control effect of B applied alone in a corresponding dose (%),Descurainia sophia; B 150 g a.i./ha,75.8%
COC(=O)c1nc(-c2ccc(Cl)c(OC)c2F)cc(N)c1Cl [Halauxifen-methyl],Control effect of B applied alone in a corresponding dose (%),Descurainia sophia; B 3 g a.i./ha,42.0%
same,Control effect of B applied alone in a corresponding dose (%),Descurainia sophia; B 6 g a.i./ha,67.4%
C[n+]1ccc(-c2cc[n+](C)cc2)cc1 [Paraquat dichloride],Control effect of B applied alone in a corresponding dose (%),Descurainia sophia; B 30 g a.i./ha,46.9%
same,Control effect of B applied alone in a corresponding dose (%),Descurainia sophia; B 60 g a.i./ha,68.0%
CCCN(CCC)c1c([N+](=O)[O-])cc(C(F)(F)F)cc1[N+](=O)[O-] [Trifluralin],Control effect of B applied alone in a corresponding dose (%),weeds; B 150 g a.i./ha,45.7%
same,Control effect of B applied alone in a corresponding dose (%),weeds; B 300 g a.i./ha,67.5%

# Source: patent US20260305610A1, “TRIAZOLE COMPOUND, AND PREPARATION METHOD THEREFOR, HERBICIDAL COMPOSITION AND USE THEREOF” (QINGDAO KINGAGROOT CHEMICAL COMPOUND CO., LTD., priority 2023, published 2026)
